32 compounds from US20130158075A1, “HETEROCYCLIC COMPOUNDS AS DGAT1 INHIBITORS” (PIRAMAL ENTERPRISES LIMITED, priority 2010, published 2013) can be followed below.

SMILES strings stand for the structures. Structures can show the parent of a compound that is named as a salt.

The term inhibition denotes the change of the read-out against control, counted positive when it falls.

The target of one assay is T1, hDGAT1 (Homo sapiens, UniProt O75907).
T1 construct: made in house; host or cells: Sf9 insect cells (baculovirus); microsomal fraction
T1 sequence (O75907 1-488): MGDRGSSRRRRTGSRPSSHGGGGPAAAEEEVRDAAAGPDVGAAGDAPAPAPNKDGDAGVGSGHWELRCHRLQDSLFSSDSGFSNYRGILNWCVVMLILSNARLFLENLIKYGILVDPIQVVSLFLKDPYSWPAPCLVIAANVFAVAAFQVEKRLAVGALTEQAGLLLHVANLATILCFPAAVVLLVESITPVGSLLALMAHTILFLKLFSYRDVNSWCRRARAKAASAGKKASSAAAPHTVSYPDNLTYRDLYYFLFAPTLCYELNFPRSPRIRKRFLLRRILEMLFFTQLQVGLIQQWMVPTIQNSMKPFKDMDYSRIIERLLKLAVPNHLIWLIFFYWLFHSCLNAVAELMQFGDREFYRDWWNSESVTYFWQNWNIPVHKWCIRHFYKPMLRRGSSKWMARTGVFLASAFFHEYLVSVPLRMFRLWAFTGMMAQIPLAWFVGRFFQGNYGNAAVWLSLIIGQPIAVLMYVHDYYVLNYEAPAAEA
Description: In-vitro DGAT1 assay with hDGAT1 microsomes from Sf9 cells (14C oleoyl CoA, scintillation counting). Format: biochemical. Conditions: at 1 μM. Summed up:
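Microsomes from Sf9 cells infected with hDGAT1 baculovirus (MOI 5, harvested ~66-72 h) were incubated with [14C]oleoyl-CoA and 1,2-dioleoyl-sn-glycerol at 37 °C for 10 min, in duplicate. After alkaline ethanol stop, triglycerides were heptane-extracted and counted by liquid scintillation; percent inhibition was plotted against compound concentration (nM).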
Turning to `O=C(Nc1ccc(-c2noc([C@H]3CC[C@H](C(=O)O)CC3)n2)cc1)Nc1ccc(Cl)cc1Oc1ccccc1` [Example 227, (1r,4r)-4-(3-(4-(3-(4-Chloro-2-phenoxyphenyl)ureido)phenyl)-1,2,4-oxadiazol-5-yl)cyclohexanecarboxylic acid], the “Percentage inhibition of hDGAT1” value is reported as “++ (>50 % Inhibition)”.
Same read-out and setting: the result for `COC(=O)C(C)(C)CCc1ncc(-c2ccc(NC(=O)Nc3ccc(F)cc3)cc2)s1` [Example 96, Methyl 4-(5-(4-(3-(4-fluorophenyl)ureido)phenyl)thiazol-2-yl-2,2-dimethyl butanoate] reads “++ (>50 % Inhibition)”.

Staying with this assay, now noted: read-out: Percentage inhibition of hDGAT1.
As to `CC(C)(CCc1ncc(-c2ccc(NC(=O)Nc3cc(F)c(F)cc3F)cc2)s1)C(=O)NS(=O)(=O)C(F)(F)F` [Example 582, 2,2-Dimethyl-N-((trifluoromethyl)sulfonyl)-4-(5-(4-(3-(2,4,5-trifluorophenyl)ureido)phenyl)thiazol-2-yl)butanamide], the inhibition at 1 µM is above 50%.
In the case of `O=C(Nc1ccc(-c2cnc(C3CCC(C(=O)O)CC3)s2)cc1)Nc1ccc(C(F)(F)F)cc1Cl` (centres unmarked) [Example 148, 4-(5-(4-(3-(2-Chloro-4-(trifluoromethyl)phenyl)ureido)phenyl)thiazol-2-yl)cyclohexanecarboxylic acid], the inhibition at 1 µM was above 50%.
As to `O=C(Nc1ccc(-c2cnc(C3CCC(C(=O)O)CC3)s2)cc1)c1ncc(-c2ccccc2)o1` (centres unmarked) [Example 198, 4-(5-(4-(5-Phenyloxazole-2-carboxamido)phenyl)thiazol-2-yl)cyclohexane carboxylic acid], the inhibition at 1 µM was above 50%.
In the case of `O=C(Nc1ccc(-c2cnc(CNS(=O)(=O)C(F)(F)F)s2)cc1)c1ccc(C(F)(F)F)cc1` [Example 552, 4-(Trifluoromethyl)-N-(4-(2-((trifluoromethylsulfonamido)methyl)thiazol-5-yl)phenyl)benzamide], the inhibition at 1 µM is above 50%.
The same measure, in the same setting: to `CC(C)(Cc1ncc(-c2ccc(NC(=O)Nc3ccc(F)cc3)cc2)s1)C(=O)O` [Example 34, 3-(5-(4-(3-(4-Fluorophenyl)ureido)phenyl)thiazol-2-yl)-2,2-dimethylpropanoic acid] belongs 20 to 50%; to `O=C(Nc1ccc(-c2cnc(C3CCN(S(=O)(=O)C(F)(F)F)CC3)s2)cc1)Nc1c(F)cc(F)cc1F` [Example 486, 1-(4-(2-(1-((Trifluoromethyl)sulfonyl)piperidin-4-yl)thiazol-5-yl)phenyl)-3-(2,4,6-trifluorophenyl)urea], 20 to 50%.
`CS(=O)(=O)N1CCC(c2ncc(-c3ccc(NC(=O)Nc4ccccc4F)cc3)s2)CC1` [Example 491, 1-(2-Fluorophenyl)-3-(4-(2-(1-(methylsulfonyl)piperidin-4-yl)thiazol-5-yl)phenyl)urea]: the inhibition at 1 µM lay in the range of 20 to 50%.
Same read-out and setting: to `CCCCCc1ccc(C(=O)Nc2ccc(-c3cnc(CC(C)(C)CC(=O)O)s3)cc2)cc1` [Example 79, 3,3-Dimethyl-4-(5-(4-(4-pentylbenzamido)phenyl)thiazol-2-yl)butanoic acid] belongs above 50%; to `N#CN=C(Nc1ccc(-c2cnc(CCNS(=O)(=O)C(F)(F)F)s2)cc1)Nc1ccccc1F` [Example 537, N-(2-(5-(4-(2-Cyano-3-(2-fluorophenyl)guanidino)phenyl)thiazol-2-yl)ethyl)-1,1,1-trifluoromethanesulfonamide], above 50%; to `CC(C)(C)OC(=O)N1CCC(c2ncc(-c3ccc(NC(=O)Nc4ccc(F)cc4F)cc3)s2)CC1` [Example 477, t-Butyl 4-(5-(4-(3-(2,4-difluorophenyl)ureido)phenyl)thiazol-2-yl)piperidine-1-carboxylate], 20 to 50%.
Regarding `O=C(Nc1ccc(-c2cnc(C3CCC(C(=O)O)CC3)o2)cc1)Nc1cccc(Cl)c1` (centres unmarked) [Example 208, 4-(5-(4-(3-(3-Chlorophenyl)ureido)phenyl)oxazol-2-yl)cyclohexanecarboxylic acid], the inhibition at 1 µM was above 50%.
The same measure, in the same setting: the result for `CC(C)(C)c1ccc(C(=O)Nc2ccc(-c3cnc(C4CCC(C(=O)O)CC4)o3)cc2)cc1` (centres unmarked) [Example 214, 4-(5-(4-(4-Tert-butylbenzamido)phenyl)oxazol-2-yl)cyclohexanecarboxylic acid] reads 20 to 50%; that for `O=C(Nc1ccc(-c2cnc(C3CCC(C(=O)O)CC3)s2)cc1)Nc1c(Cl)cccc1C(F)(F)F` (centres unmarked) [Example 158, 4-(5-(4-(3-(2-Chloro-6-(trifluoromethyl)phenyl)ureido)phenyl)thiazol-2-yl)cyclohexanecarboxylic acid], above 50%.
Same read-out and setting: the result for `O=C(Nc1ccc(-c2cnc(C3CCC(C(=O)O)CC3)s2)cc1)Nc1ccccc1C(F)(F)F` (centres unmarked) [Example 166, 4-(5-(4-(3-(2-(Trifluoromethyl)phenyl)ureido)phenyl)thiazol-2-yl)cyclohexane carboxylic acid] reads above 50%; that for `CC(C)(N)C1CCC(c2ncc(-c3ccc(NC(=O)Nc4cc(F)c(F)cc4F)cc3)s2)CC1` (centres unmarked) [Example 587, 1-(4-(2-(4-(2-Aminopropan-2-yl)cyclohexyl)thiazol-5-yl)phenyl)-3-(2,4,5-trifluorophenyl)urea], above 50%; that for `CC(C)(CCc1ncc(-c2ccc(NC(=O)Nc3ccccc3Cl)cc2)s1)C(=O)O` [Example 90, 4-(5-(4-(3-(2-Chlorophenyl)ureido)phenyl)thiazol-2-yl)-2,2-dimethylbutanoic acid], above 50%.
Still for that read-out and setting: the result for `NNC(=O)CC1CCC(c2ncc(-c3ccc(NC(=O)Nc4cc(F)cc(F)c4)cc3)s2)CC1` (centres unmarked) [Example 410, 1-(3,5-Difluorophenyl)-3-(4-(2-(4-(2-hydrazinyl-2-oxoethyl)cyclohexyl)thiazol-5-yl)phenyl)urea] reads above 50%; that for `NCCc1ncc(-c2ccc(NC(=O)Nc3cc(F)c(F)cc3F)cc2)s1` [Example 575, 1-(4-(2-(2-Aminoethyl)thiazol-5-yl)phenyl)-3-(2,4,5-trifluorophenyl)urea hydrochloride], 20 to 50%.
On to `O=C(O)CCCc1nnc(-c2ccc(NC(=O)Nc3ccc(F)cc3F)cc2)s1` [Example 284, 4-(5-(4-(3-(2,4-Difluorophenyl)ureido)phenyl)-1,3,4-thiadiazol-2-yl)butanoic acid], for which the inhibition at 1 µM was above 50%.
As for `O=C(Nc1ccc(-c2cnc(C3CCC(C(=O)O)CC3)s2)cc1)Nc1ccc2c(c1)OCO2` (centres unmarked) [Example 156, 4-(5-(4-(3-Benzo[d][1,3]-dioxol-5-ylureido)phenyl)thiazol-2-yl)cyclohexane carboxylic acid], the inhibition at 1 µM was above 50%.
Same read-out and setting: the result for `CC(C)(CCc1ncc(-c2ccc(NC(=O)N3CCOCC3)cc2)s1)C(=O)O` [Example 241, 2,2-Dimethyl-4-(5-(4-(morpholine-4-carboxamido)phenyl)thiazol-2-yl)butanoic acid] reads 20 to 50%; that for `CCOc1cc(COC)cc(C(=O)Nc2ccc(-c3cnc(CCC(=O)O)s3)cc2)c1` [Example 19, 3-(5-(4-(3-Ethoxy-5-(methoxymethyl)benzamido)phenyl)thiazol-2-yl)propanoic acid], above 50%.
Consider `O=C(Nc1ccc(-c2cnc(C3CCN(S(=O)(=O)C(F)(F)F)CC3)s2)cc1)Nc1ccc(F)cc1F` [Example 485, 1-(2,4-Difluorophenyl)-3-(4-(2-(1-((trifluoromethyl)sulfonyl)piperidin-4-yl)thiazol-5-yl)phenyl)urea], for which the inhibition at 1 µM fell in the range of 20 to 50%.
Same read-out and setting: the result for `CC(=O)NC(=O)CC1CCC(c2ncc(-c3ccc(NC(=O)Nc4ccc(F)cc4F)cc3)s2)CC1` (centres unmarked) [Example 401, N-Acetyl-2-(4-(5-(4-(3-(2,4-difluorophenyl)ureido)phenyl)thiazol-2-yl)cyclohexyl)acetamide] reads above 50%; that for `O=C(Nc1ccc(-c2cnc(C3CCN(S(=O)(=O)C(F)(F)F)CC3)s2)cc1)Nc1ccccc1Cl` [Example 484, 1-(2-Chlorophenyl)-3-(4-(2-(1-((trifluoromethyl)sulfonyl)piperidin-4-yl)thiazol-5-yl)phenyl)urea], 20 to 50%.
With `COc1ccc(S(=O)(=O)Nc2ccc(-c3cnc(CCC(=O)O)s3)cc2)c(OC)c1` [Example 25, 3-(5-(4-(2,4-Dimethoxyphenylsulfonamido)phenyl)thiazol-2-yl)propanoic acid], the inhibition at 1 µM was 20 to 50%.
The same measure, in the same setting: to `O=C(Nc1ccc(-c2cnc(C3CCC(C(=O)O)CC3)s2)cc1)Nc1ccc(F)c(F)c1` (centres unmarked) [Example 180, 4-(5-(4-(3-(3,4-Difluorophenyl)ureido)phenyl)thiazol-2-yl)cyclohexane carboxylic acid] belongs above 50%.
In the case of `O=C(O)CC1CCC(c2ncc(-c3ccc(NC(=O)Nc4ccccc4Cl)cc3)s2)CC1` (centres unmarked) [Example 346, 2-(4-(5-(4-(3-(2-Chlorophenyl)ureido)phenyl)thiazol-2-yl)cyclohexyl)acetic acid], the inhibition at 1 µM was above 50%.
As to `O=C(Nc1ccc(-c2cnc(C3CCC(C(=O)O)CC3)s2)cc1)Nc1cc(F)c(F)cc1F` (centres unmarked) [Example 584, 4-(5-(4-(3-(2,4,5-Trifluorophenyl)ureido)phenyl)thiazol-2-yl)cyclohexane carboxylic acid], the inhibition at 1 µM was above 50%.
The same measure, in the same setting: to `O=C(O)CCCc1nnc(-c2ccc(NC(=O)Nc3ccccc3Cl)cc2)s1` [Example 280, 4-(5-(4-(3-(2-Chlorophenyl)ureido)phenyl)-1,3,4-thiadiazol-2-yl)butanoic acid] belongs above 50%.
